Experimental data as given in US20260092071A1, “COMPOUNDS AND COMPOSITIONS AS SMARCA2/4 DEGRADERS AND USES THEREOF” (REGENTS OF THE UNIVERSITY OF MICHIGAN, priority 2022, published 2026).
Like-named read-outs stand apart in the source and are kept apart here.

Key:
[1] = biological target: SMARCA2 (Homo sapiens, UniProt P51531); assay: HiBiT assay for protein degradation, Hela SMARCA2-HiBiT cells (A series); type: cell-based; parameters: Hela cells were genetically modified via CRISPR/Cas9 to fuse HiBiT to the carboxy terminus of SMARCA2; host or cells: HeLa (CRISPR/Cas9 HiBiT knock-in); details: for DC50: read-out: SMARC A2 Hela HiBit DC50; for Dmax: read-out: SMARC A2 Hela HiBit Dmax (%);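 for SMARC A2 Hela HiBit Dmax (%): 24 h compound treatment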
Chain of SMARCA2 (P51531 whole entry, the tested form may be a part): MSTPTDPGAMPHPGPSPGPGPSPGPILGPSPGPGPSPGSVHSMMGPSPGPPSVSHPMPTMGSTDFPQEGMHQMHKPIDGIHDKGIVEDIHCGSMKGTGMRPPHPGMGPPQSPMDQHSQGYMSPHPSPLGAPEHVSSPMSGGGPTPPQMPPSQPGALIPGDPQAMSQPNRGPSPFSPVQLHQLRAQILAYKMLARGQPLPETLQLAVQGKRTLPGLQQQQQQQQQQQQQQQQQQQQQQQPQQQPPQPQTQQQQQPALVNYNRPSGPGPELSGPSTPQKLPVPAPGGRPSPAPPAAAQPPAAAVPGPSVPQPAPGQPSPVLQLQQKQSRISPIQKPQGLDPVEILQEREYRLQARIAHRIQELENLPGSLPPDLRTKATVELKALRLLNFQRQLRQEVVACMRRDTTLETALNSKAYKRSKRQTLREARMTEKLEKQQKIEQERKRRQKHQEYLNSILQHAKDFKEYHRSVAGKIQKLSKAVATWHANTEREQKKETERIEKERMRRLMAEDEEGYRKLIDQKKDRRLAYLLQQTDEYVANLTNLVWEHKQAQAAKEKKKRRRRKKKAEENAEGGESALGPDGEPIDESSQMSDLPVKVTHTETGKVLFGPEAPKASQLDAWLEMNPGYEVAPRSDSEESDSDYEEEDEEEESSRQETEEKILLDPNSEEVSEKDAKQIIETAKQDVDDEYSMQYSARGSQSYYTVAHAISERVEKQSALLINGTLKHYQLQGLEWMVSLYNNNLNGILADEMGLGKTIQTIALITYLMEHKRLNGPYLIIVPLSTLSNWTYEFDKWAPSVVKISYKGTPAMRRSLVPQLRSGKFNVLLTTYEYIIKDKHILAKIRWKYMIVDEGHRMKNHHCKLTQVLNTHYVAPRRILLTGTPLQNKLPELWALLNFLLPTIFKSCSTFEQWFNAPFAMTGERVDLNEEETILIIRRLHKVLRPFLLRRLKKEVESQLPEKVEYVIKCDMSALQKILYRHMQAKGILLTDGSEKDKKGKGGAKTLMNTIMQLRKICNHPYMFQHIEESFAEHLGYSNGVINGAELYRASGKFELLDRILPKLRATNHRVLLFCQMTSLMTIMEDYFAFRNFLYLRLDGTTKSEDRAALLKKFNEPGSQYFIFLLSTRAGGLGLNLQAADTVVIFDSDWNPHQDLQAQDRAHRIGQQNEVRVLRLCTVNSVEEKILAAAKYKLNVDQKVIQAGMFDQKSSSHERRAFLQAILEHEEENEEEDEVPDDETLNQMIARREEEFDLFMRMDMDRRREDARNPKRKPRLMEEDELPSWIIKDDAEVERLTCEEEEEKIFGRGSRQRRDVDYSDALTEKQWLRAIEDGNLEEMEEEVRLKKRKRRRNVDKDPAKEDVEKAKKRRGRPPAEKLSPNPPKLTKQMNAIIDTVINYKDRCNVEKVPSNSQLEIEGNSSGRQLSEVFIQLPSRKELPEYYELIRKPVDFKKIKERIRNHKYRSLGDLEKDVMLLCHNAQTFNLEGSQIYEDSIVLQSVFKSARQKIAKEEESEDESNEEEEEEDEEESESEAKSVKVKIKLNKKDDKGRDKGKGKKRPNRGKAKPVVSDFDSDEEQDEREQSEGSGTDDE
How it was run: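 HeLa cells engineered by CRISPR/Cas9 to carry a HiBiT tag fused to the C-terminus of SMARCA2 (Promega CS302365) were grown in DMEM supplemented with FBS and penicillin-streptomycin. After treatment, remaining SMARCA2 protein was quantified with the Nano-Glo® HiBiT Lytic Detection Assay (Promega N3050), and curves were fitted in GraphPad Prism.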

[2] = biological target: SMARCA4 (Homo sapiens, UniProt P51532); assay: HiBiT assay for protein degradation, Hela SMARCA4-HiBiT cells (A series); type: cell-based; parameters: fuse HiBiT to the carboxy terminus of SMARCA2 (Promega CS302365) or SMARCA4 (Promega CS3023225); host or cells: HeLa (CRISPR/Cas9 HiBiT knock-in); details: for DC50: read-out: SMARC A4 Hela HiBit DC50; for Dmax: read-out: SMARC A4 Hela HiBit Dmax
Chain of SMARCA4 (P51532 whole entry, the tested form may be a part): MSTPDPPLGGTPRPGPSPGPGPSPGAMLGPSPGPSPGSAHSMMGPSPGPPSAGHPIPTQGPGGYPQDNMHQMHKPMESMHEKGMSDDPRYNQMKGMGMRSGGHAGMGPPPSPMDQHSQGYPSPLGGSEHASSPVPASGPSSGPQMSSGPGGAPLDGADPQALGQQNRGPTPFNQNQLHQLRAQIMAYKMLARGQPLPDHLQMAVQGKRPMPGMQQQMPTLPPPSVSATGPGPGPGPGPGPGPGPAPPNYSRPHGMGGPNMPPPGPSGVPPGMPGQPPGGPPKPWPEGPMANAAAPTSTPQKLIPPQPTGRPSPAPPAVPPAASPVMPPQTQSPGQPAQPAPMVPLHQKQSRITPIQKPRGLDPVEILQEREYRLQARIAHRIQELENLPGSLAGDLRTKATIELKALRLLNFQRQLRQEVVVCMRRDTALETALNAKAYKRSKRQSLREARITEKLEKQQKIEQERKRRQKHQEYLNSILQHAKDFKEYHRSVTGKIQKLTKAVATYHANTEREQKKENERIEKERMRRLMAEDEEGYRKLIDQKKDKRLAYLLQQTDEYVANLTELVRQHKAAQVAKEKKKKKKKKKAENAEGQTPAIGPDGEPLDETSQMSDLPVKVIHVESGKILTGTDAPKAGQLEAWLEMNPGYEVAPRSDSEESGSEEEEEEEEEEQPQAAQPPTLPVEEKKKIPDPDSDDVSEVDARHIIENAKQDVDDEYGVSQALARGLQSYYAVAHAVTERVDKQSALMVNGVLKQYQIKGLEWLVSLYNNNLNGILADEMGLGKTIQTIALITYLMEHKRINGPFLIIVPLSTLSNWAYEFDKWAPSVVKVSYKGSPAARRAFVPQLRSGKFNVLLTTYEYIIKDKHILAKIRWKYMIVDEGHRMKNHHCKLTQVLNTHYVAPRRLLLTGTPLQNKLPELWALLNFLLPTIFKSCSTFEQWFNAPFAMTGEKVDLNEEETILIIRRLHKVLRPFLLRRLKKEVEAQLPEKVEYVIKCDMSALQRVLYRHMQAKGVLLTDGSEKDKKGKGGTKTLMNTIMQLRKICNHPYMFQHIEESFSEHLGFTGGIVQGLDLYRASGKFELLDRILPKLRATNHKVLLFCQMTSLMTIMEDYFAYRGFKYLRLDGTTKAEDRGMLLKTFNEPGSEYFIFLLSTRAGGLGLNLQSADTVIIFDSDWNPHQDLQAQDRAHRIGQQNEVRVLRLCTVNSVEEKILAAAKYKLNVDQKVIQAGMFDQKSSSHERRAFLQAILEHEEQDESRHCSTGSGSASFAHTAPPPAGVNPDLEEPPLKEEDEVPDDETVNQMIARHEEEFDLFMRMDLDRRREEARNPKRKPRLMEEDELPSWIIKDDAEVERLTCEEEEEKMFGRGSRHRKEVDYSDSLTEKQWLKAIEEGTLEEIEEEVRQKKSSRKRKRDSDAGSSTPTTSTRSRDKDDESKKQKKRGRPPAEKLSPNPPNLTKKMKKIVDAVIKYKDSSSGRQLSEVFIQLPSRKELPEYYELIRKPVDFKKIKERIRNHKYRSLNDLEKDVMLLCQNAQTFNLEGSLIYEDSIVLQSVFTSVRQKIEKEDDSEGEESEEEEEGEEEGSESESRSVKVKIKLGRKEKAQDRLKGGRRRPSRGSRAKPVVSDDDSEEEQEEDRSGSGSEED
How it was run: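 HeLa cells engineered by CRISPR/Cas9 to carry a HiBiT tag fused to the C-terminus of SMARCA4 (Promega CS3023225) were grown in DMEM supplemented with FBS and penicillin-streptomycin. After compound exposure, remaining SMARCA4 protein was quantified using the Nano-Glo® HiBiT Lytic Detection Assay (Promega N3050), and curves were fitted in GraphPad Prism.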

[3] = Hela SMARCA2-HiBiT cells, 24 hours treatment
[4] = Hela SMARCA4-HiBiT cells, 24 hours treatment

DC50 [1, 3] [µM]	Dmax [1, 3] [%]	DC50 [2, 4] [µM]	Dmax [2, 4] [%]	DC50 [1] [µM]	DC50 [2] [µM]	SMARC A2 Hela HiBit Dmax (%) [1, 3]	SMARC A4 Hela HiBit Dmax(%) [2, 4]	Compound	SMARC A2 Hela HiBit Dmax (%) [1]
< 0.01	> 90	> 1	< 50					COCCOCCOCCOCCOC[C@H](NC(=O)[C@@H]1C[C@@H](O)CN1C(=O)[C@@H](n1cc([C@H]2CC[C@H](CN3CCC(c4ccc5c(c4)-n4c(nc(=O)c6c(Cl)cccc64)C5(C)C)CC3)CC2)nn1)C(C)(C)C)c1ccc(-c2scnc2C)cc1 [Compound A151, (2S,4R)-1-((S)-2-(4-((1r,4S)-4-((4-(4-chloro-7,7-dimethyl-5-oxo-5,7-dihydroindolo[1,2-a]quinazolin-10-yl)piperidin-1-yl)methyl)cyclohexyl)-1H-1,2,3-triazol-1-yl)-3,3-dimethylbutanoyl)-4-hydroxy-N—((R)-16-(4-(4-methylthiazol-5-yl)phenyl)-2,5,8,11,14-pentaoxahexadecan-16-yl)pyrrolidine-2-carboxamide]	
< 0.01	> 90	> 1	50 to 69					Cc1ncsc1-c1ccc([C@H](CN2CCC3(COC3)C2)NC(=O)[C@@H]2C[C@@H](O)CN2C(=O)[C@@H](n2cc([C@H]3CC[C@H](CN4CCC(c5ccc6c(c5)-n5c(nc(=O)c7c(Cl)cccc75)C65CCCCC5)CC4)CC3)nn2)C(C)(C)C)cc1 [Compound A97, (2S,4R)-1-((S)-2-(4-((1r,4S)-4-((4-(4′-chloro-5′-oxo-5′H-spiro[cyclohexane-1,7′-indolo[1,2-a]quinazolin]-10′-yl)piperidin-1-yl)methyl)cyclohexyl)-1H-1,2,3-triazol-1-yl)-3,3-dimethylbutanoyl)-4-hydroxy-N—((R)-1-(4-(4-methylthiazol-5-yl)phenyl)-2-(2-oxa-6-azaspiro[3.4]octan-6-yl)ethyl)pyrrolidine-2-carboxamide]	
				< 0.1	< 0.1			Cc1ncsc1-c1ccc([C@H](C)NC(=O)[C@@H]2C[C@@H](O)CN2C(=O)[C@@H](n2cc([C@H]3CC[C@H](CN4CCC(c5ccc6c(c5)C5(CCCCC5)c5nc(=O)c7c(Br)cccc7n5-6)CC4)CC3)nn2)C(C)(C)C)cc1 [Compound A60, (2S,4R)-1-((S)-2-(4-((1r,4S)-4-((4-(4′-bromo-5′-oxo-5′H-spiro[cyclohexane-1,7′-indolo[1,2-a]quinazolin]-9′-yl)piperidin-1-yl)methyl)cyclohexyl)-1H-1,2,3-triazol-1-yl)-3,3-dimethylbutanoyl)-4-hydroxy-N—((S)-1-(4-(4-methylthiazol-5-yl)phenyl)ethyl)pyrrolidine-2-carboxamide]	A (key: A (>90% degradation); B (70-90% degradation); C (50-69% degradation); D (<50% degradation))
				0.1 to 0.5	0.1 to 0.5	A (A (>90% degradation))	C (C (50-69% degradation))	Cc1ncsc1-c1ccc([C@H](CN2CCOCC2)NC(=O)[C@@H]2C[C@@H](O)CN2C(=O)[C@@H](NC(=O)C2CC(CN3CCC(c4ccc5c(c4)C4(CCCCC4)c4nc(=O)c6c(Br)cccc6n4-5)CC3)C2)C(C)(C)C)cc1 (stereo partly drawn) [Compound A21, (2S,4R)-1-((S)-2-(3-((4-(4′-bromo-5′-oxo-5′H-spiro[cyclohexane-1,7′-indolo[1,2-a]quinazolin]-9′-yl)piperidin-1-yl)methyl)cyclobutane-1-carboxamido)-3,3-dimethylbutanoyl)-4-hydroxy-N—((R)-1-(4-(4-methylthiazol-5-yl)phenyl)-2-morpholinoethyl)pyrrolidine-2-carboxamide]	
